From patent US20230000870A1, “METHODS OF TREATING CANCER IN BIOMARKER-IDENTIFIED PATIENTS WITH INHIBITORS OF CYCLIN-DEPENDENT KINASE 7 (CDK7)” (Syros Pharmaceuticals, Inc., priority 2019, published 2023)
pIC50: −log10 of the molar value.

How the values were obtained:
[1] = target: CDK7/Cyclin H/MAT1 complex (Homo sapiens, UniProt P50613); experiment: CDK7 kinase inhibition assay (Caliper/LabChip EZ Reader); format: biochemical; conditions: CDK7/Cyclin H/MAT1 6 nM, ATP 2 mM, 35 min at 27° C.
Procedure: (§1) Compounds of the invention were assayed for inhibition of CDK7, CDK9, CDK12, and CDK2 activity at Biortus Biosciences (Jiangyin, Jiangsu Province, P.R. of China) using kinase assays for each CDK developed with a Caliper/LabChip EZ Reader (Perkin Elmer, Waltham, Mass.).
(§2) Furthermore, the CDK9 inhibition assay used CDK9/Cyclin T1 complex (8 nM) and “5-FAM-CDK9tide” peptide substrate (2 μM, synthesized fluorophore-labeled peptide with the following sequence: 5-FAM-GSRTPMY-NH2 where 5-FAM is defined above and NH2 signifies a C-terminal amide) with 10 mM MgCl2 in the buffer composition listed above. The CDK12 inhibition assay used CDK12 (aa686-1082)/Cyclin K complex (50 nM) and “5-FAM-CDK9tide” (2 μM) as defined above, with 2 mM MgCl2 in the buffer composition above. Additionally, the CDK2 inhibition assay used CDK2/Cyclin E1 complex (0.5 nM) and “5-FAM-CDK7tide” (2 μM) as defined above, with 2 mM MgCl2 in the buffer composition listed above.
(§3) The incubation period at 27° C. for each CDK inhibition assay was chosen such that the fraction of phosphorylated peptide product produced in each assay, relative to the total peptide concentration, was approximately 20% (±5%) for the uninhibited kinase (35 min. for CDK7, 35 min. for CDK2, 3 hr. for CDK12, 15 min. for CDK9).

[2] = target: T1, CDK12 (aa686-1082)/Cyclin K complex (Homo sapiens, UniProt Q9NYV4); experiment: CDK12 kinase inhibition assay (Caliper/LabChip EZ Reader); format: biochemical; conditions: CDK12 (aa686-1082)/Cyclin K 50 nM, ATP 2 mM, 3 hr at 27° C.
T1 construct: CDK12 (aa686-1082)/Cyclin K complex
T1 sequence (Q9NYV4 686-1082): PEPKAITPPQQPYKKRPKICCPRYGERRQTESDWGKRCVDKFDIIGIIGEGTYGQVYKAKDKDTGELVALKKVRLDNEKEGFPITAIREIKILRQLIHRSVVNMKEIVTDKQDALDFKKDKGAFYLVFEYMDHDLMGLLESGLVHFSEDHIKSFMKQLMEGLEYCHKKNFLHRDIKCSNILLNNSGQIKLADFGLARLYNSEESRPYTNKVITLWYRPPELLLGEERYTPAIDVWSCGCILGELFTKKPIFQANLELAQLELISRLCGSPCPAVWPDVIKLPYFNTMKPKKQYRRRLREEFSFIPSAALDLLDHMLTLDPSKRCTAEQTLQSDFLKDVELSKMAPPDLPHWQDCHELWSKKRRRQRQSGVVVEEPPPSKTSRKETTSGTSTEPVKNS
T1 sequence (O75909 whole entry partner, the tested form may be a part): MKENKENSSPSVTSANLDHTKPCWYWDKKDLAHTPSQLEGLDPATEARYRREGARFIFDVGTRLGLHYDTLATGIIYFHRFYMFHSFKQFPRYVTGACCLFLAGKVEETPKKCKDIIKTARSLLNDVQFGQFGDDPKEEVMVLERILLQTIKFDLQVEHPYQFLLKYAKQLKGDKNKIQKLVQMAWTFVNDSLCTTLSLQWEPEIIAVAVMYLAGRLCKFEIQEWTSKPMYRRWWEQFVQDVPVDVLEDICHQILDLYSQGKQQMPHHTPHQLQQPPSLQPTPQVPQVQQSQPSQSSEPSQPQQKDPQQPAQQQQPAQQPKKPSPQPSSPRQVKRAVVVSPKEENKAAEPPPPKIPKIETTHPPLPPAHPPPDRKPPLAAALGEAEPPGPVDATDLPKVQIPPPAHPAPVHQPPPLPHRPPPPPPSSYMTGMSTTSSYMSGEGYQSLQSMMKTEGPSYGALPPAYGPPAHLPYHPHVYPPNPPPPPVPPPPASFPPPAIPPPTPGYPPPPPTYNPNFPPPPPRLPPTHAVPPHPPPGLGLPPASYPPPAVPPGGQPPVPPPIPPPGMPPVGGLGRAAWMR
Procedure: as §1, §2, §3

[3] = system: A673 cells; experiment: Inhibition of proliferation of A673 cells (CyQUANT, 72 hour); format: cell-based, human; conditions: read-out: Inhibition of Proliferation of A673 Cells (calculated IC50)
Procedure: A673 Cells: A673 cells are a cell line derived from human muscle Ewing's sarcoma. Representative compounds of the invention were tested at different concentrations (from 4 μM to […]; 0.5 log serial dilutions) for their ability to inhibit the proliferation of A673 cells. Known CDK inhibitors dinaciclib or N-((1S,3R)-3-((5-chloro-4-(1H-indol-3-yl)pyrimidin-2-yl)amino)cyclohexyl)-5-((E)-4-(dimethylamino)but-2-enamido)picolinamide and triptolide were used as positive controls. Cells were grown in Dulbecco's Modified Eagle's Medium, +10% FBS+1 mM Sodium Pyruvate. The cells were cultured at 37° C. in a humidified chamber in the presence of 5% CO2. Proliferation assays were conducted over a 72 hour time period. CyQUANT® (Life Technologies, Chicago, Ill. USA) was used to assess the anti-proliferative effects of the compounds following manufacturer's directions and utilizing the reagents supplied with the CyQUANT® kit.

[4] = target: CDK2/Cyclin E1 complex (Homo sapiens, UniProt P24941); experiment: CDK2 kinase inhibition assay (Caliper/LabChip EZ Reader); format: biochemical; conditions: CDK2/Cyclin E1 0.5 nM, ATP 2 mM, 35 min at 27° C.
Procedure: as §1, §2, §3

[5] = target: CDK9/Cyclin T1 complex (Homo sapiens, UniProt P50750); experiment: CDK9 kinase inhibition assay (Caliper/LabChip EZ Reader); format: biochemical; conditions: CDK9/Cyclin T1 8 nM, ATP 2 mM, 15 min at 27° C.
Sequence of CDK9/Cyclin T1 complex (P50750 whole entry): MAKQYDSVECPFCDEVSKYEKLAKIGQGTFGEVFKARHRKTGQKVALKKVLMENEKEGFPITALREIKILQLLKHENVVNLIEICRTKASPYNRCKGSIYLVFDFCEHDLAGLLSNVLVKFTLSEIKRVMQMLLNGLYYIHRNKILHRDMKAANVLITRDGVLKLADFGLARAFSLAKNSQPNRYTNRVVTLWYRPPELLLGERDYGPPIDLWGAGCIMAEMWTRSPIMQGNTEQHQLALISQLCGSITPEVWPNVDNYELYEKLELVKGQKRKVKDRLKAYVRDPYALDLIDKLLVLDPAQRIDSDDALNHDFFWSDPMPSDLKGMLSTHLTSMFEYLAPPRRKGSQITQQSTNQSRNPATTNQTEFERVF
Sequence of CDK9/Cyclin T1 complex (O60563 whole entry partner): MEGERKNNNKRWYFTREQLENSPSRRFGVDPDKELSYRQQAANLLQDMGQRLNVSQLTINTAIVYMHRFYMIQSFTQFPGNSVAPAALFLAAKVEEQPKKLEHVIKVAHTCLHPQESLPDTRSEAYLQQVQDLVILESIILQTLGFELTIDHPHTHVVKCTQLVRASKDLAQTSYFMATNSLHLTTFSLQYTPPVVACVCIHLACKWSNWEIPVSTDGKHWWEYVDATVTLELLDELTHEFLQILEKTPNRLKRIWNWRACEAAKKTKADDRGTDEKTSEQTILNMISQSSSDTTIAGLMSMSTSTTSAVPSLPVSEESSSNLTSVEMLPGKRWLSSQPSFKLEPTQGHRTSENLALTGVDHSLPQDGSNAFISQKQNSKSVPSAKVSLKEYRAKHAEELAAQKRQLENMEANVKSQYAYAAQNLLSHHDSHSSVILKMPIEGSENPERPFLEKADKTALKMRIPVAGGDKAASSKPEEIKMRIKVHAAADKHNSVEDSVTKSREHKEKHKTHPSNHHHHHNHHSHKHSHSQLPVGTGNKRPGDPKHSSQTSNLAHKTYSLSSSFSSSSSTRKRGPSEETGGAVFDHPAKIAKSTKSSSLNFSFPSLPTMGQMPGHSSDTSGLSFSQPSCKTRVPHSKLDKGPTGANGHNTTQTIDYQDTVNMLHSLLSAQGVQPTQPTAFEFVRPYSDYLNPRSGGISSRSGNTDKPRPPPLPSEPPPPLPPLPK
Procedure: as §1, §2, §3

Sequence of CDK7/Cyclin H/MAT1 complex (P50613 whole entry): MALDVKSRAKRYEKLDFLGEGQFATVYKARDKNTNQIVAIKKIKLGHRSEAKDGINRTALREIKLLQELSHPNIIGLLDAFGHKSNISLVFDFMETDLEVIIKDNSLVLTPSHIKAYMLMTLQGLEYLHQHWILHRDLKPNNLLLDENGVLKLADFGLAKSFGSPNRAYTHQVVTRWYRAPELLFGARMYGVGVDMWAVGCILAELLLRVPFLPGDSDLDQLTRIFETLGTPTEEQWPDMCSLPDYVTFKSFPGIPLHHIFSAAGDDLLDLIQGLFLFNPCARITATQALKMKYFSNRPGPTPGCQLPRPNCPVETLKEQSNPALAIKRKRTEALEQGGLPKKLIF
Sequence of CDK7/Cyclin H/MAT1 complex (P51946 whole entry partner): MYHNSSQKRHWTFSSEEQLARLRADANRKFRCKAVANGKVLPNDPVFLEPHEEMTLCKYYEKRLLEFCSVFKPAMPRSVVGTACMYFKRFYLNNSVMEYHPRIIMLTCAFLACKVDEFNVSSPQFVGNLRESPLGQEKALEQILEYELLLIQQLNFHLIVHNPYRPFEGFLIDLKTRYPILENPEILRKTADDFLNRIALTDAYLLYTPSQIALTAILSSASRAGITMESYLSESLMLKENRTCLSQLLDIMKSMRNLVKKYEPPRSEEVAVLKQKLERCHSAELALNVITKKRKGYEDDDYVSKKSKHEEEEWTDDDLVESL
Sequence of CDK7/Cyclin H/MAT1 complex (P51948 whole entry partner): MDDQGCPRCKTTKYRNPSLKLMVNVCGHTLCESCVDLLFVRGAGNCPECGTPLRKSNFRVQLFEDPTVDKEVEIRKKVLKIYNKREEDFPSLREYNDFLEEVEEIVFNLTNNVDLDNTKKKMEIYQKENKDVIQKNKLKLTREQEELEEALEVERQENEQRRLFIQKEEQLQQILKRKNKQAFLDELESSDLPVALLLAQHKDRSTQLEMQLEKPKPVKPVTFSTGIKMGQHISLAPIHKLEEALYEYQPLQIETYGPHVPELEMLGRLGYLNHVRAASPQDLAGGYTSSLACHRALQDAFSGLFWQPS

| Compound | pIC50 [1] | pIC50 [2] | pIC50 [3] | pIC50 [4] | pIC50 [5] |
| --- | --- | --- | --- | --- | --- |
| Cc1cn(-c2cccc3c(-c4nc(NC5CCCNC5)ncc4C(F)(F)F)c[nH]c23)cn1 (stereo not shown) [Compound 172] | > 7.70 | 5.30 to 6.70 | > 7.70 | 5.30 to 6.70 | 5.30 to 6.70 |
| Fc1cc2[nH]nc(-c3nc(NC4CCCNC4)ncc3C(F)(F)F)c2cc1F (stereo not shown) [Compound 152] | > 7.70 | 5.30 to 6.70 | > 7.70 | 5.30 to 6.70 | 5.30 to 6.70 |
| N#Cc1cn(-c2ccc3c(-c4nc(NC5CCCNC5)ncc4C(F)(F)F)c[nH]c3c2)cn1 (stereo not shown) [Compound 249] | > 7.70 | 5.30 to 6.70 | 6.70 to 7.70 | ≤ 5.30 | ≤ 5.30 |
| CC1CCNCC1Nc1ncc(Cl)c(-c2c[nH]c3ccccc23)n1 (stereo not shown) [Compound 126] | 6.70 to 7.70 | 5.30 to 6.70 | – | 5.30 to 6.70 | 5.30 to 6.70 |
| Fc1cc2[nH]cc(-c3nc(NC4CCCNC4)ncc3C(F)(F)F)c2cc1F (stereo not shown) [Compound 184] | > 7.70 | 6.70 to 7.70 | > 7.70 | 6.70 to 7.70 | 6.70 to 7.70 |
| O=S1(=O)CCN(c2cccc3c(-c4nc(NC5CCCNC5)ncc4Cl)c[nH]c23)CC1 (stereo not shown) [Compound 196] | > 7.70 | 5.30 to 6.70 | 6.70 to 7.70 | 5.30 to 6.70 | 5.30 to 6.70 |
| COCCN1CCCC(Nc2ncc(Cl)c(-c3c[nH]c4ccccc34)n2)C1 (stereo not shown) [Compound 149] | 6.70 to 7.70 | 5.30 to 6.70 | 6.70 to 7.70 | 5.30 to 6.70 | 5.30 to 6.70 |
| CCc1cnc(NC2CCCNC2)nc1-c1c[nH]c2ncc(F)cc12 (stereo not shown) [Compound 231] | ≤ 5.30 | ≤ 5.30 | 5.30 to 6.70 | ≤ 5.30 | ≤ 5.30 |
| CC(C)C1CCC(Nc2nccc(-c3c[nH]c4ccccc34)n2)CN1 (stereo not shown) [Compound 237] | 6.70 to 7.70 | 5.30 to 6.70 | – | 5.30 to 6.70 | ≤ 5.30 |
| CCc1cnc(NC2CCCNC2)nc1-c1n[nH]c2ccc(C)cc12 (stereo not shown) [Compound 120] | 5.30 to 6.70 | 5.30 to 6.70 | – | ≤ 5.30 | ≤ 5.30 |
| CSc1cnc(NC2CCCNC2)nc1-c1c[nH]c2cc(C#N)ccc12 (stereo not shown) [Compound 272] | – | – | 6.70 to 7.70 | – | – |
| CCC1CCC(Nc2ncc(C(F)(F)F)c(-c3c[nH]c4ccccc34)n2)CN1 (stereo not shown) [Compound 217] | > 7.70 | 5.30 to 6.70 | 6.70 to 7.70 | 5.30 to 6.70 | 5.30 to 6.70 |
| CC(C)(O)Cn1cc(-c2ccc3c(-c4nc(N[C@H]5CCCNC5)ncc4C(F)(F)F)c[nH]c3c2)cn1 [Compound 214] | 6.70 to 7.70 | 5.30 to 6.70 | 6.70 to 7.70 | 5.30 to 6.70 | 5.30 to 6.70 |
| CC(=O)c1cccc2c(-c3nc(NC4CCCNC4)ncc3Cl)c[nH]c12 (stereo not shown) [Compound 142] | > 7.70 | 5.30 to 6.70 | > 7.70 | 5.30 to 6.70 | 5.30 to 6.70 |
| COCCn1cc(-c2nc(NC3CCCNC3)ncc2Cl)c2ccccc21 (stereo not shown) [Compound 122] | 5.30 to 6.70 | ≤ 5.30 | 5.30 to 6.70 | ≤ 5.30 | 5.30 to 6.70 |
| CC(C)(O)CCc1cccc2c(-c3nc(NC4CCCNC4)ncc3C(F)(F)F)c[nH]c12 (stereo not shown) [Compound 191] | > 7.70 | 5.30 to 6.70 | > 7.70 | 5.30 to 6.70 | 5.30 to 6.70 |

| Compound | pIC50 [1] | pIC50 [2] | pIC50 [3] | pIC50 [4] | pIC50 [5] |
| --- | --- | --- | --- | --- | --- |
| CC(O)c1cnc(NC2CCCNC2)nc1-c1c[nH]c2ccccc12 (stereo not shown) [Compound 239] | 5.30 to 6.70 | ≤ 5.30 | 5.30 to 6.70 | ≤ 5.30 | ≤ 5.30 |
| CNC(=O)C1CNCC(Nc2ncc(C(F)(F)F)c(-c3c[nH]c4ccccc34)n2)C1 (stereo not shown) [Compound 256] | 6.70 to 7.70 | 5.30 to 6.70 | 5.30 to 6.70 | 5.30 to 6.70 | ≤ 5.30 |
| CCc1cnc(NC2CCCNC2)nc1-c1c[nH]c2c(S(=O)O)cccc12 (stereo not shown) [Compound 363] | 6.70 to 7.70 | ≤ 5.30 | – | ≤ 5.30 | ≤ 5.30 |
| CCc1cnc(N[C@H]2CCCNC2)nc1-c1c[nH]c2c(S(=O)(=O)O)cccc12 [Compound 362] | 6.70 to 7.70 | ≤ 5.30 | – | ≤ 5.30 | ≤ 5.30 |
| FC(F)(F)c1cnc(NC2CCCNC2)nc1-c1c[nH]c2c(Br)cccc12 (stereo not shown) [Compound 163] | 6.70 to 7.70 | 5.30 to 6.70 | 6.70 to 7.70 | – | 5.30 to 6.70 |
| FC(F)(F)c1cnc(NC2CCCNC2)nc1-c1c[nH]c2c(-c3ccncc3)cccc12 (stereo not shown) [Compound 162] | 6.70 to 7.70 | 5.30 to 6.70 | > 7.70 | – | 5.30 to 6.70 |
| CCc1cnc(N[C@H]2CCCNC2)nc1-c1c[nH]c2cc(S(C)(=O)=O)ccc12 [Compound 271] | – | – | 5.30 to 6.70 | – | – |
| FC(F)(F)c1cnc(N[C@H]2CCCNC2)nc1-c1c[nH]c2cc(-n3ccnc3)ccc12 [Compound 248] | > 7.70 | 5.30 to 6.70 | – | 5.30 to 6.70 | 5.30 to 6.70 |
| Clc1cnc(NC2(c3ccccc3)CCCNC2)nc1-c1c[nH]c2ccccc12 (stereo not shown) [Compound 130] | ≤ 5.30 | ≤ 5.30 | 5.30 to 6.70 | – | – |
| FC(F)(F)c1cnc(NC2CNCC(c3nnc4ccccn34)C2)nc1-c1c[nH]c2ccccc12 (stereo not shown) [Compound 268] | – | – | 5.30 to 6.70 | – | – |
| CC1(O)CCC(c2cccc3c(-c4nc(NC5CCCNC5)ncc4C(F)(F)F)c[nH]c23)CC1 (stereo not shown) [Compound 193] | 6.70 to 7.70 | 5.30 to 6.70 | – | 5.30 to 6.70 | 5.30 to 6.70 |
| CC1CCC(Nc2ncc(Cl)c(-c3c[nH]c4ccccc34)n2)CN1 (stereo not shown) [Compound 129] | 6.70 to 7.70 | 5.30 to 6.70 | 6.70 to 7.70 | – | – |
| CCC1(Nc2ncc(Cl)c(-c3c[nH]c4ccccc34)n2)CCCNC1 (stereo not shown) [Compound 128] | ≤ 5.30 | ≤ 5.30 | – | ≤ 5.30 | ≤ 5.30 |
| Cn1cc(-c2cccc3c(-c4nc(NC5CCCNC5)ncc4C(F)(F)F)c[nH]c23)cn1 (stereo not shown) [Compound 164] | 6.70 to 7.70 | 5.30 to 6.70 | > 7.70 | – | 5.30 to 6.70 |
| CC1(O)CCN(C(=O)c2ccc3c(-c4nc(NC5CCCNC5)ncc4C(F)(F)F)c[nH]c3c2)C1 (stereo not shown) [Compound 220] | > 7.70 | 5.30 to 6.70 | – | ≤ 5.30 | ≤ 5.30 |
